By MIC is commonly meant the least concentration at which growth counts as inhibited. Low values mean inhibition by little substance, high ones a need for much substance.

The record followed here is DBAASP.

In brackets after ≈: the same amount, converted by molar mass. Bounds are passed on as bounds.

Test systems include Escherichia coli AS1.349; Bacillus cereus AS1.126; Acinetobacter sp.; Escherichia coli; Escherichia coli ML-35; Bacillus megaterium Bm11; Escherichia coli D21.
Holding throughout (assay): ≥ marks a high value that may be exact or a test limit, other limits are often not marked, values filed in µg/mL are converted to µM
For experiment [1], the system named is Staphylococcus aureus ATCC 25325.
The test system of experiment [2] is Pseudomonas aeruginosa ATCC 27853.
The test system of experiment [3] is Escherichia coli ATCC 35218.
Experiment [4] concerns Enterococcus faecalis ATCC 29212.
Experiment [5] deals with Candida albicans CMCC 98001.
Experiment [6] deals with Lactococcus lactis AS1.1690.
The test system of experiment [7] is Enterococcus faecium CGMCC 1.2334.
Experiment [8] relates to Staphylococcus aureus AS1.72.
Experiment [9] has as its system Fusobacterium nucleatum CGMCC 1.2526.
Experiment [10] relates to Enterobacter cloacae CGMCC 1.58.
Experiment [11] has as its system Pseudomonas aeruginosa CGMCC 1.860.
For experiment [12], the system named is Streptococcus mutans CGMCC 1.2500.
Experiment [13] deals with Enterococcus faecalis CGMCC 1.595.
In experiment [14] the test system is Streptococcus sanguinis CGMCC 1.2497.
For experiment [15], the system named is Streptococcus salivarius CGMCC 1.2498.
The subject of experiment [16] is Klebsiella aerogenes CGMCC 1.876.
Experiment [17] has as its system Klebsiella pneumoniae subsp. pneumoniae CGMCC 1.176.
Experiment [18] deals with Lactobacillus acidophilus CGMCC 1.1854.
Experiment [19] has as its system Escherichia coli ATCC 11775.
The subject of experiment [20] is Pseudomonas aeruginosa ATCC 25668.
Experiment [21] concerns Bacillus subtilis ATCC 6633.
The subject of experiment [22] is Bacillus anthracis Sterne 34F2.
Experiment [23] has as its system Bacillus subtilis ATCC 9372.
For experiment [24], the system named is Burkholderia thailandensis.
The test system of experiment [25] is Staphylococcus epidermidis ATCC 12228.
Experiment [26] relates to Serratia marcescens ATCC 8100.
Experiment [27] has as its system Salmonella enterica subsp. enterica serovar Typhimurium ATCC 14028.

As to `CC(C)[C@H](NC(=O)[C@H](Cc1cnc[nH]1)NC(=O)[C@H](C)NC(=O)[C@H](C)NC(=O)[C@H](CCCCN)NC(=O)[C@H](CCCCN)NC(=O)[C@H](Cc1ccccc1)NC(=O)[C@H](Cc1ccccc1)NC(=O)[C@H](CO)NC(=O)CNC(=O)[C@H](Cc1c[nH]c2ccccc12)NC(=O)CN)C(=O)NCC(=O)O` [GWGSFFKKAAHVG], the MIC was no less than 58 µM in [1], 52 µM (≈ 72.4 µg/mL) in [2], no less than 43.6 µM in experiment [3] and 57 µM (≈ 79.3 µg/mL) in experiment [4].

Turning to `CC[C@H](C)[C@H](N)C(=O)N[C@@H](CCCCN)C(=O)N[C@@H](CCCCN)C(=O)N[C@H](C(=O)N[C@H](C(=O)N[C@@H](CO)C(=O)N[C@@H](CCCCN)C(=O)N[C@H](C(=O)N[C@@H](CCCCN)C(=O)N[C@@H](CCCCN)C(=O)N[C@H](C(=O)N[C@@H](CC(C)C)C(=O)N[C@@H](CCCCN)C(N)=O)C(C)C)[C@@H](C)CC)C(C)C)[C@@H](C)CC` [IKKIVSKIKKVLK], the MIC in experiment [5] came to 6.25 µM (≈ 9.53 µg/mL); in experiment [6] it was 3.12 µM (≈ 4.76 µg/mL); in experiment [7], 7.81 µM (≈ 11.9 µg/mL); in experiment [8], 6.25 µM (≈ 9.53 µg/mL); in [9], 6.25 µM (≈ 9.53 µg/mL); in experiment [10], 7.81 µM (≈ 11.9 µg/mL). Moreover, the MIC worked out at 6.25 µM (≈ 9.53 µg/mL) in [11]; 6.25 µM (≈ 9.53 µg/mL) with Escherichia coli AS1.349; 6.25 µM (≈ 9.53 µg/mL) in [12]; 7.81 µM (≈ 11.9 µg/mL) in experiment [13]; 3.12 µM (≈ 4.76 µg/mL) in the experiment on Bacillus cereus AS1.126; 6.25 µM (≈ 9.53 µg/mL) in experiment [14]. Further, the minimal inhibitory concentration (MIC) in [15] came to 6.25 µM (≈ 9.53 µg/mL); in experiment [16], 7.81 µM (≈ 11.9 µg/mL); in [17], 6.25 µM (≈ 9.53 µg/mL); in experiment [18], 6.25 µM (≈ 9.53 µg/mL).

Turning to `CC[C@H](C)[C@H](NC(C)=O)C(=O)N[C@@H](CCCCN)C(=O)N[C@@H](Cc1c[nH]c2ccccc12)C(=O)N[C@@H](C)C(=O)NCC(=O)N[C@@H](CCCCN)C(=O)N[C@@H](Cc1c[nH]c2ccccc12)C(=O)N[C@@H](Cc1c[nH]c2ccccc12)C(=O)N[C@@H](CCCCN)C(=O)N[C@@H](CC(C)C)C(=O)N[C@@H](Cc1ccccc1)C(=O)N[C@@H](CCCCN)C(N)=O` [IKWAGKWWKLFK], the MIC in experiment [19] was determined as 0.629 µM (≈ 1.03 µg/mL); with Acinetobacter sp., 2.51 µM (≈ 4.1 µg/mL); in experiment [20], 0.629 µM (≈ 1.03 µg/mL); in experiment [21], 2.51 µM (≈ 4.1 µg/mL); against Escherichia coli, 1.26 µM (≈ 2.05 µg/mL).

Turning to `CSCC[C@H](NC(=O)[C@@H](NC(=O)[C@H](CC(N)=O)NC(C)=O)C(C)C)C(=O)N[C@H](C(=O)N[C@@H](Cc1ccc(O)cc1)C(=O)N[C@@H](Cc1c[nH]c2ccccc12)C(=O)N[C@@H](Cc1c[nH]c2ccccc12)C(=O)N[C@@H](CC(C)C)C(=O)N[C@@H](CC(=O)O)C(=O)N1CCC[C@H]1C(=O)N1CCC[C@H]1C(=O)N[C@@H](CC(C)C)C(N)=O)[C@@H](C)O` [NVMTYWWLDPPL], the MIC in [22] is no less than 100 µM; in experiment [23], no less than 100 µM; in [24], no less than 50 µM.

As for `CC(C)C[C@H](NC(=O)[C@H](Cc1ccc(O)cc1)NC(=O)[C@@H]1CCCN1C(=O)[C@@H]1CCCN1C(=O)[C@H](CCCN=C(N)N)NC(=O)[C@@H]1CCCN1C(=O)[C@H](CCCN=C(N)N)NC(=O)[C@H](CCCN=C(N)N)NC(=O)[C@@H](N)CCCN=C(N)N)C(=O)N1CCC[C@H]1C(=O)N[C@@H](CCCN=C(N)N)C(=O)N1CCC[C@H]1C(=O)N[C@@H](CCCN=C(N)N)C(=O)N1CCC[C@H]1C(=O)N1CCC[C@H]1C(=O)O` [RRRPRPPYLPRPRPP], the minimum inhibitory concentration (MIC) in experiment [25] was greater than 64 µM; against Escherichia coli ML-35, 1 µM (≈ 1.91 µg/mL); in [26], 4 µM (≈ 7.65 µg/mL); with Bacillus megaterium Bm11 it was 8 µM (≈ 15.3 µg/mL); against Escherichia coli D21, 0.5 µM (≈ 0.956 µg/mL); in [27], 0.125 µM (≈ 0.239 µg/mL).
